PubChem BioAssay (NCI)
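Five concentrations, 48 hours, 96-well plates. GI50 marks 50% less growth. TGI: concentration producing complete growth inhibition.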

What was measured:
Test in all cases: DTP human tumour cell line panel, 48 h
ACHN renal = tested on: ACHN renal
NCI-H522 lung = tested on: NCI-H522 lung
HOP-92 NSCLC = tested on: HOP-92 NSCLC
SK-OV-3 ovarian = tested on: SK-OV-3 ovarian
NCI-H226 lung = tested on: NCI-H226 lung
COLO 205 colon = tested on: COLO 205 colon
SF-539 CNS = tested on: SF-539 CNS
M14 melanoma = tested on: M14 melanoma
OVCAR-8 ovarian = tested on: OVCAR-8 ovarian
UACC-257 melanoma = tested on: UACC-257 melanoma

| SMILES | TGI (ACHN renal) [µM] | TGI (NCI-H522 lung) [µM] | TGI (HOP-92 NSCLC) [µM] | TGI (SK-OV-3 ovarian) [µM] | TGI (NCI-H226 lung) [µM] | TGI (COLO 205 colon) [µM] | TGI (SF-539 CNS) [µM] | TGI (M14 melanoma) [µM] | TGI (OVCAR-8 ovarian) [µM] | TGI (UACC-257 melanoma) [µM] | GI50 (ACHN renal) [µM] | GI50 (NCI-H522 lung) [µM] | GI50 (HOP-92 NSCLC) [µM] | GI50 (SK-OV-3 ovarian) [µM] | GI50 (NCI-H226 lung) [µM] | GI50 (COLO 205 colon) [µM] | GI50 (SF-539 CNS) [µM] | GI50 (M14 melanoma) [µM] | GI50 (OVCAR-8 ovarian) [µM] | GI50 (UACC-257 melanoma) [µM] |
| --- | --- | --- | --- | --- | --- | --- | --- | --- | --- | --- | --- | --- | --- | --- | --- | --- | --- | --- | --- | --- |
| CC1(Sc2ccccc2)CN(Cc2ccccc2)C1=O (stereo unspecified) | > 100 | > 100 | 86 | > 100 | > 100 | > 100 | > 100 | > 100 | > 100 | > 100 |  |  |  |  |  |  |  |  |  |  |
| CC1=C(C(=O)OCc2ccccc2)C(c2ccc3c(c2)OCO3)n2c(nc3ccccc32)N1 (stereo unspecified) | > 100 | > 57.6 | > 100 | > 100 | > 100 | > 100 | > 100 | > 100 | > 100 | > 100 | 0.63 | 0.164 | > 100 | 0.467 | > 100 | 0.417 | 0.34 | 0.418 | 0.628 |  |
| CCOC(=O)C=C1CCN(C(=O)c2ccccc2)CC1 | > 100 |  | > 100 | > 100 |  | > 100 | > 100 | > 100 | > 100 | > 100 |  |  |  |  |  |  |  |  |  |  |
| COC(=O)[C@@H]1CSC(=S)N1C(=O)C[C@H]1CC=CC[C@H]1CC(=O)Sc1ccccc1 | 32.1 | 18.2 |  | 50 | 47.2 | 37.1 | 32.1 | 32.4 | 50.6 | 35.9 |  |  |  |  |  |  |  |  |  |  |
| N#CC(C#N)=Cc1ccc(-c2ccc(-c3nc4ccccc4s3)cc2)o1 | > 100 | 51.8 |  | 35.4 | 39.2 | 55.3 | 26.7 | > 100 | 33.1 | > 100 | 18.5 | 17.8 |  | 10 | 14.2 | 20.6 | 11.2 | > 100 | 12.7 | 92.9 |
| CN(C)c1ccc2nc3ccc(=[N+](C)C)cc-3oc2c1 | 52.4 |  |  | 45.2 | 6.76 | 1.68 | 15.4 | 3.77 | 7.36 | 3.34 | 7.28 |  |  | 6.65 | 2.1 | 0.391 | 0.707 | 0.959 | 2.13 | 0.697 |
| CCOP(=O)(OCC)C1CCCCOC1=O (stereo unspecified) | > 100 |  |  | > 100 |  | > 100 | > 100 | > 100 | > 100 | > 100 |  |  |  |  |  |  |  |  |  |  |
| CC1(C)CCC2(C(=O)OC3OC(CO)C(O)C(O)C3O)CC[C@]3(C)C(=CCC4C5(C)CC[C@H](OC6OC(C(=O)O)C(O)C(O)C6O)C(C)(C)C5CCC43C)C2C1 (stereo partly specified) | 12.6 | 9.71 | 2.98 |  | 6.31 | 3.55 |  | 4.33 | 18.1 | 15.4 | 6.3 | 1.72 | 1.04 |  | 1.49 | 1.36 |  | 1.47 | 4.28 | 4.18 |
| Nc1ncnc2sc(=S)c3c(c12)CCC3 | > 100 | > 100 |  | > 100 | > 100 | 62.6 | 52.8 | > 100 | > 100 | > 100 | 26.3 | 47.1 |  | 89 | 28.7 | 25.1 | 17 | 42.7 | 37.7 | > 100 |
| COc1cc2cc(Oc3ccc(NC(=O)Nc4ccc(Cl)c(C(F)(F)F)c4)cc3)c(C)nc2cc1OCCN1CCCCC1 | 2.92 | 3.26 | 2.41 | 3.93 |  | 3.33 | 2.94 | 3.78 |  | 3.46 | 1.57 | 1.59 | 1.09 | 2.28 |  | 1.65 | 1.58 | 1.92 |  | 1.79 |
| O=C(CC1Sc2ccccc2NC1=O)Nc1cc(Cl)ccc1Cl (stereo unspecified) | > 100 |  | > 100 |  | > 100 |  | > 100 | > 100 | > 100 | > 100 |  |  |  |  |  |  |  |  |  |  |
| CC[C@H](Nc1nc(N)nc(C)c1C#N)c1nc2cccc(CN(C)c3ncc(C(=O)NO)cn3)c2c(=O)n1-c1ccccc1 | 3.79 | 4.27 | 1.52 | 3.22 | 7.07 |  | 6.12 | 7.01 | 10.3 | 3.11 | 1.26 | 0.174 | 0.204 | 0.969 | 1.18 |  | 0.591 | 1.08 | 0.704 | 0.36 |
| CSc1nnc(CCSc2ccnc3c(C(F)(F)F)cccc23)o1 | > 100 | > 100 | > 100 | > 100 | > 100 | > 100 | > 100 |  | > 100 | > 100 | > 100 | > 100 | 18.1 | > 100 | > 100 | > 100 | 60.6 |  | > 100 | > 100 |
| CN(C)CCCNC(=O)c1cc(NC(=O)CCNS(=O)(=O)c2ccc3c(c2)C(=O)c2ccccc2C3=O)cn1C |  | > 100 | > 100 | > 100 | > 100 | > 100 | > 100 | > 100 | > 100 | > 100 |  | > 100 | 88.9 | > 100 | > 100 | > 100 | > 100 | > 100 | > 100 | 54.4 |
| COc1ccc(Cn2nc(-c3cc(OC)c(OC)c(OC)c3)c3c2CCc2cnoc2-3)cc1OC | > 100 | > 100 |  | 33 | 56.1 | 23.4 | 36.1 | 47.4 | > 100 | > 100 | 6.12 | 3.17 |  | 4.36 | 6.85 | 4.68 | 3.11 | 4.08 | 19.6 | 34.6 |
